One compound from paper PMC5218480 (PLoS ONE, 2017) can be followed below.

The test system of one test is MV-4-11 cells. Nature of the test: Cell viability assay (CellTiter-Glo), single agent and combination. The note with it: read-out: IC50 cell viability MV-4-11; 72 hours. On the technique in general: Cellular ATP, detected with luciferase, serves as a proxy for viable cell number.
The test system of the next test is MV-4-11 and HL-60 cells. Nature of the test: Flow cytometry, surface level of CD11b (differentiation). Format: cell-based, human. Conditions: single agent, 72 hours. As for the experimental part:
All compounds and/or solvent DMSO were added concurrently at the indicated doses. Flow cytometry was performed to measure surface level of CD11b, cell cycle distribution, and induction of apoptosis. CD11b and apoptosis were analyzed on a FC500 flow cytometer ([…]) and cell cycle profiled on an Attune NxT (Life Technologies).
The frequency of CD11b positive cells out of total viable cells identified by forward and side scatter profile was quantified.

Test [1] deals with five human AML cell lines (MV-4-11, Kasumi-1, HL-60, MOLM-13, NB-4). Put plainly: Cell viability assay, summary over five human AML cell lines. Conditions: 72 hours.
Protocol: (§4) MV-4-11, Kasumi-1, and HL-60 AML cell lines were all obtained from ATCC. MOLM-13 and NB-4 cell lines were obtained from DSMZ. […] The identity of each cell line was validated and documented by the suppliers. All experiments were performed with cells maintained at low passage numbers.
(§5) Compounds and/or solvent dimethyl sulfoxide (DMSO) were added at the same time using an HP D300 digital dispenser (Hewlett Packard) in triplicate or quadruplicate and incubated for 72 hours at 37°C. Viability was measured by adding 25 μL CellTiter-Glo (Promega), incubating for 10 minutes, and measuring luminescence on a SpectraMax (Molecular Devices). […] CI < 1 indicates synergism, CI = 1 indicates additivity, and CI > 1 indicates antagonism.
In the next test the target is T1, HDAC1 (Homo sapiens, UniProt Q13547).
T1 construct: purchased BPS Biosciences
Nature of the test: HDAC enzyme assay, in vitro biochemical. On the procedure: (§1) In vitro biochemical assays were performed as described previously. Specifically, compounds were dissolved and diluted in assay buffer (50 mM HEPES, pH 7.4, 100 mM KCl, 0.001% Tween-20, 0.05% BSA, and 20 μM Tris (2-carboxyethyl) phosphine) to 6-fold the final concentration. […] The amount of substrate (acetyl-lysine tripeptide) used for each enzyme was equal to the Michaelis constant (Km), as determined by a titration curve. Substrate was diluted in assay buffer to 6-fold of the final concentration with 0.3 μM sequencing grade trypsin (Sigma-Aldrich). The substrate/trypsin mix was added to the enzyme/compound mix and the plate was shaken for 5 seconds and then placed into a SpectraMax M5 microtiter (Molecular Devices) plate reader. The enzymatic reaction was monitored over 30 minutes for release of […] after deacetylation of the lysine side chain in the peptide substrate, and the linear rate of the reaction was calculated.

Another test concerns the target T2, HDAC2 (Homo sapiens, UniProt Q92769).
T2 construct: purchased BPS Biosciences
Nature of the test: HDAC enzyme assay, in vitro biochemical. On the procedure: as §1

In another test the target is T3, HDAC3 (Homo sapiens, UniProt O15379).
T3 construct: purchased BPS Biosciences
Nature of the test: HDAC enzyme assay, in vitro biochemical. Conditions: pre-incubated 24 hours at 4°C; n = 3; read-out: IC50 against HDAC3. As for the experimental part:
as §1

For another test, the system named is HL-60 cells. Put plainly: Cell viability assay (CellTiter-Glo). Conditions: read-out: IC50 cell viability HL-60; 72 hours.
The target of a further test is T4, HDAC7 (Homo sapiens, UniProt Q8WUI4).
T4 construct: purchased BPS Biosciences
T4 sequence (Q8WUI4 1-952): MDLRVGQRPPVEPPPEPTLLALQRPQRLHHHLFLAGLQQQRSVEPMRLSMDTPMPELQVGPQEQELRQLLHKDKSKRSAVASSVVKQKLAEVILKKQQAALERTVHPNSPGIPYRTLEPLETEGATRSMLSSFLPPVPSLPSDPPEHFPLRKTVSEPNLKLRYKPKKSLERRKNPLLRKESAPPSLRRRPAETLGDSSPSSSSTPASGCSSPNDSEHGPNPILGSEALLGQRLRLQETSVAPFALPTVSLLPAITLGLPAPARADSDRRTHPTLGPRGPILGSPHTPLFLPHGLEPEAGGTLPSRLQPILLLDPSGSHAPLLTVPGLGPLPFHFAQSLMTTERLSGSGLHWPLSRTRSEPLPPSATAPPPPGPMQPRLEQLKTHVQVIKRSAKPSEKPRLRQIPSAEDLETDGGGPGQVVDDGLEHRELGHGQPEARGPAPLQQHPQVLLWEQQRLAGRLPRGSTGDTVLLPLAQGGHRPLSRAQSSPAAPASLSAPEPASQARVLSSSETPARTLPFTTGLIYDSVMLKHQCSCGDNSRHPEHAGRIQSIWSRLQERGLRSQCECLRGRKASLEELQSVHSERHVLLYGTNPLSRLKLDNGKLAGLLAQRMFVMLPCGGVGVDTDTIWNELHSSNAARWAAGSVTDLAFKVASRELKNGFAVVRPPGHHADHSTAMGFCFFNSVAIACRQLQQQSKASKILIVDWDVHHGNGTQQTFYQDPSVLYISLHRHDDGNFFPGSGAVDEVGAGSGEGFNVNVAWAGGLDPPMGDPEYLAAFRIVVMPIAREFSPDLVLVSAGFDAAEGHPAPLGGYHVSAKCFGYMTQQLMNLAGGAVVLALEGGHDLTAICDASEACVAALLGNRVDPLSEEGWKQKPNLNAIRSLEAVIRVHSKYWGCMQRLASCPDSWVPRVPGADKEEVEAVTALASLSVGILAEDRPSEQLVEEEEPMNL
Put plainly: HDAC enzyme assay, in vitro biochemical. The note with it: maximum concentration tested of 20 μM. On the procedure:
as §1
(§2) biochemical assay for HDAC4, HDAC5, HDAC6, HDAC7, HDAC8, HDAC9 inhibition by ACY-1035.
(§3) (1 picture or pasted object on this page, not shown here)

A further test deals with T5, HDAC9 (Homo sapiens, UniProt Q9UKV0).
T5 construct: purchased BPS Biosciences
Put plainly: HDAC enzyme assay, in vitro biochemical. The note with it: maximum concentration tested of 20 μM. As for the experimental part: as §1, §2, §3

Another test has as its target T6, HDAC8 (Homo sapiens, UniProt Q9BY41).
T6 construct: purchased BPS Biosciences
T6 sequence (Q9BY41 1-377): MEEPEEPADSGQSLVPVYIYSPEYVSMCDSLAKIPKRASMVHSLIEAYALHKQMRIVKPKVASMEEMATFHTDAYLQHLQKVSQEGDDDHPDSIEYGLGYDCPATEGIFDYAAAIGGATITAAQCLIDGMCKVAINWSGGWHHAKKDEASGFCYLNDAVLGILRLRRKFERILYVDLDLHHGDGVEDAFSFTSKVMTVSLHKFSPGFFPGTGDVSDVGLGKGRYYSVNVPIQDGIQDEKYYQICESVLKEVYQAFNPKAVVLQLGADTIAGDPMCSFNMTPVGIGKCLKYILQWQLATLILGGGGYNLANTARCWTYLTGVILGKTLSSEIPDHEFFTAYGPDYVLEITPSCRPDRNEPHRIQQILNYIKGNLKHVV
Put plainly: HDAC enzyme assay, in vitro biochemical. The note with it: maximum concentration tested of 20 μM. As for the experimental part:
as §1, §2, §3

Read-outs that look alike come from different tables or passages of the source.

T1 sequence (Q13547 whole entry): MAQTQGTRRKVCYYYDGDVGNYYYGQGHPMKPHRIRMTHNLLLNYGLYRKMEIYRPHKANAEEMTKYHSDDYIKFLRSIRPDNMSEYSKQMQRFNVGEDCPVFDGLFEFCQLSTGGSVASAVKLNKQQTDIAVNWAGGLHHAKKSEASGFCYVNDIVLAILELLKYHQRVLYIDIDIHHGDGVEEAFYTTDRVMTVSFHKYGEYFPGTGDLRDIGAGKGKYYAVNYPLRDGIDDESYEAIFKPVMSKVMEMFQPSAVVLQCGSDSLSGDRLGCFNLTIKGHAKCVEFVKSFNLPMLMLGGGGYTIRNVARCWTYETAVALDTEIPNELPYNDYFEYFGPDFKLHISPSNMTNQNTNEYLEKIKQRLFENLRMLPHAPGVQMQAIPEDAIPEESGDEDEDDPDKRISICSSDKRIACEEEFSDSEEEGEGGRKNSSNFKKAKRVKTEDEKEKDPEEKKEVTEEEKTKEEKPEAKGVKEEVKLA
T2 sequence (Q92769 whole entry): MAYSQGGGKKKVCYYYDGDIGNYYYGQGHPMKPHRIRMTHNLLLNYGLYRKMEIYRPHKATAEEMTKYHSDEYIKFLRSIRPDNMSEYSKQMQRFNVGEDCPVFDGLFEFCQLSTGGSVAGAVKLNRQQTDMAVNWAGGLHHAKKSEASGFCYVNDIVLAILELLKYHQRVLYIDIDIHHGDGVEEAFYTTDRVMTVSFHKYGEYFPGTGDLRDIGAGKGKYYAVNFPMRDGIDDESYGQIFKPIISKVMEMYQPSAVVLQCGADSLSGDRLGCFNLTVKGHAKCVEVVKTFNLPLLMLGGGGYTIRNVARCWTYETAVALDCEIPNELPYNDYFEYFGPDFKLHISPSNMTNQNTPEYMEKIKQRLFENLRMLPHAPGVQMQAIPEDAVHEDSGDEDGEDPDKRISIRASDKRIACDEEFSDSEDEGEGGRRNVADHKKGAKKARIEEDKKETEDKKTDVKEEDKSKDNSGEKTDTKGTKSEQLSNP
T5 sequence (Q9UKV0 whole entry): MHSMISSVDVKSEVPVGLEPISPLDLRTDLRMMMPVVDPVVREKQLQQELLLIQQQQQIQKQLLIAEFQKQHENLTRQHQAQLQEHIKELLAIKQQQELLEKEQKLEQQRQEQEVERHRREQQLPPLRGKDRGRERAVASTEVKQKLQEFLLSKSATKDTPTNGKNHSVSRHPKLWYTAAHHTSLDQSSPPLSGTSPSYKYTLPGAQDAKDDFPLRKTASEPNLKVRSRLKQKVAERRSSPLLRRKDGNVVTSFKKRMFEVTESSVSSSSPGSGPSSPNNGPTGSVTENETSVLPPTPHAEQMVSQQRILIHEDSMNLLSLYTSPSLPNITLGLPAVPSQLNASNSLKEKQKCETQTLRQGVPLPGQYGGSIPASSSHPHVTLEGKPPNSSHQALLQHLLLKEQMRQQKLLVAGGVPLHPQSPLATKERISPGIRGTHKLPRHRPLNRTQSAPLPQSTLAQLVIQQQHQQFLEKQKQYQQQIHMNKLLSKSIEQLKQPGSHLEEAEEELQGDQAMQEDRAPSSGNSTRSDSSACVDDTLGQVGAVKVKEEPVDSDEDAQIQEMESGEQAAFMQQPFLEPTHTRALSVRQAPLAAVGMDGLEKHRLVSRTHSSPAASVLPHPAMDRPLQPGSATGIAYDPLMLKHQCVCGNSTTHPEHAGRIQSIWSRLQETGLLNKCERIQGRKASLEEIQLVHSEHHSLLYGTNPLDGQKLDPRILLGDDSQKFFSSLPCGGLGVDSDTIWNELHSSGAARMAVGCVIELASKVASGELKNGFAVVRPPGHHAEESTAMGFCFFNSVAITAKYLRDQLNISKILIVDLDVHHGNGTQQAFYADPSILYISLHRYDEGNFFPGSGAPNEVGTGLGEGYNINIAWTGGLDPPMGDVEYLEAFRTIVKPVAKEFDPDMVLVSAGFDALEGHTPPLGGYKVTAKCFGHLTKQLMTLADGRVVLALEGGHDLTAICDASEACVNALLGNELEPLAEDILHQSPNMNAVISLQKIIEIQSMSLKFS
T3 sequence (O15379 whole entry): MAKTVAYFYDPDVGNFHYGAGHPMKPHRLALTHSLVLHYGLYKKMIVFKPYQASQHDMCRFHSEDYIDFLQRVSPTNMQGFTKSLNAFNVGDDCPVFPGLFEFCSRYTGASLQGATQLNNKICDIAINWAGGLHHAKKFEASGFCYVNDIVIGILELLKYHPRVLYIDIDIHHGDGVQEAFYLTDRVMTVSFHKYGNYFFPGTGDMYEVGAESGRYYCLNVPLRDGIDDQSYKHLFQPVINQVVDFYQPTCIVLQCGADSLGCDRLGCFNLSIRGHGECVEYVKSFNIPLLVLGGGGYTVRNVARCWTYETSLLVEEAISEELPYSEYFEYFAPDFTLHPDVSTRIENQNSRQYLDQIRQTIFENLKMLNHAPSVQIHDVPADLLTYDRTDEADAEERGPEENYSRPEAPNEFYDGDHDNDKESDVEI
T3 sequence (Q9Y618 395-489 partner limits assumed): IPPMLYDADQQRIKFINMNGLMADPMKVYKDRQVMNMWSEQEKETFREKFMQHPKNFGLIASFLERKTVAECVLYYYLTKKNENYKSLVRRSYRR
Protocol for MV-4-11 cells: as §4, §5

As to `Nc1ccc(-c2cccs2)cc1NC(=O)c1ccc2c(c1)cc(C1CC1)n2CCN1CCOCC1` [ACY-1035], the IC50 (commonly the concentration that gives 50% inhibition) in the test on MV-4-11 cells was 1.4 µM; in [1] (read-out: IC50 values cell viability, range, five human AML cell lines, both compounds) it was 0.8 to 3.3 µM; in test [1] (read-out: average IC50 value, viability of AML cells, average of five AML cell lines) it was 2.6 µM; on HDAC1 (pre-incubated 24 hours at 4°C, n = 3, read-out: IC50 against HDAC1), 0.0094 µM; on HDAC2 (pre-incubated 24 hours at 4°C, n = 3, read-out: IC50 against HDAC2), 0.023 µM; at HDAC3, 2 µM. Further, in the test on HL-60 cells, the IC50 worked out at 3.3 µM. In the test with MV-4-11 and HL-60 cells, the “differentiation, surface expression of CD11b” value is given as “dose-dependent induction of differentiation”. On HDAC1, the “selectivity for HDAC1 over HDAC3” value is “more than 150 fold”. In addition, the “selectivity for HDAC2 over HDAC3” value on HDAC2 was “approximately 50 fold”. Besides, the “inhibition of HDAC7” value on HDAC7 is listed as “did not inhibit”. Further, at HDAC9, the “inhibition of HDAC9” value is on record as “did not inhibit”. In addition, at HDAC8, the “inhibition of HDAC8” value is listed as “did not inhibit”.
